Reference: PubChem BioAssay (NCI)
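Compound exposure: 48 hours, 5 concentrations, 96-well plates. TGI: concentration producing complete growth inhibition.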

What was measured:
Experiment in all cases: DTP human tumour cell line panel, 48 h
786-0 renal = test system: 786-0 renal
A498 renal = test system: A498 renal
A549 NSCLC = test system: A549 NSCLC
ACHN renal = test system: ACHN renal
BT-549 breast = test system: BT-549 breast
CAKI-1 renal = test system: CAKI-1 renal
CCRF-CEM leukemia = test system: CCRF-CEM leukemia
COLO 205 colon = test system: COLO 205 colon
DU-145 prostate = test system: DU-145 prostate
EKVX NSCLC = test system: EKVX NSCLC
HCC-2998 colon = test system: HCC-2998 colon
HCT-116 colon = test system: HCT-116 colon
HCT-15 colon = test system: HCT-15 colon
HOP-62 NSCLC = test system: HOP-62 NSCLC
HOP-92 NSCLC = test system: HOP-92 NSCLC
HT29 colon = test system: HT29 colon
IGROV1 ovarian = test system: IGROV1 ovarian
K-562 leukemia = test system: K-562 leukemia
LOX IMVI melanoma = test system: LOX IMVI melanoma
M14 melanoma = test system: M14 melanoma
MALME-3M melanoma = test system: MALME-3M melanoma
MCF7 breast = test system: MCF7 breast
MDA-MB-231 breast = test system: MDA-MB-231 breast
MDA-MB-435 = test system: MDA-MB-435
MDA-N = test system: MDA-N
MOLT-4 leukemia = test system: MOLT-4 leukemia
NCI-H226 lung = test system: NCI-H226 lung
NCI-H23 lung = test system: NCI-H23 lung
NCI-H460 lung = test system: NCI-H460 lung
NCI-H522 lung = test system: NCI-H522 lung
NCI/ADR-RES ovarian = test system: NCI/ADR-RES ovarian
OVCAR-3 ovarian = test system: OVCAR-3 ovarian
OVCAR-4 ovarian = test system: OVCAR-4 ovarian
OVCAR-5 ovarian = test system: OVCAR-5 ovarian
OVCAR-8 ovarian = test system: OVCAR-8 ovarian
PC-3 prostate = test system: PC-3 prostate
RPMI-8226 leukemia = test system: RPMI-8226 leukemia
RXF 393 renal = test system: RXF 393 renal
SF-268 CNS = test system: SF-268 CNS
SF-295 CNS = test system: SF-295 CNS
SF-539 CNS = test system: SF-539 CNS
SK-MEL-2 melanoma = test system: SK-MEL-2 melanoma
SK-MEL-28 melanoma = test system: SK-MEL-28 melanoma
SK-MEL-5 melanoma = test system: SK-MEL-5 melanoma
SK-OV-3 ovarian = test system: SK-OV-3 ovarian
SN12C renal = test system: SN12C renal
SNB-19 CNS = test system: SNB-19 CNS
SR leukemia = test system: SR leukemia
SW-620 colon = test system: SW-620 colon
T-47D breast = test system: T-47D breast
TK-10 renal = test system: TK-10 renal
U251 CNS = test system: U251 CNS
UACC-257 melanoma = test system: UACC-257 melanoma
UACC-62 melanoma = test system: UACC-62 melanoma
UO-31 renal = test system: UO-31 renal
HL-60(TB) leukemia = test system: HL-60(TB) leukemia
HS 578T breast = test system: HS 578T breast
KM12 colon = test system: KM12 colon
SNB-75 CNS = test system: SNB-75 CNS

COc1cccc2c(Nc3ccc(S(=O)(=O)N=C(N)N)cc3)c3ccc([N+](=O)[O-])cc3nc12
TGI (786-0 renal): 46.7 µM | TGI (A498 renal): 44.9 µM | TGI (A549 NSCLC): > 100 µM | TGI (ACHN renal): 31.9 µM | TGI (BT-549 breast): 46.1 µM | TGI (CAKI-1 renal): 32.1 µM | TGI (CCRF-CEM leukemia): 31.6 µM | TGI (COLO 205 colon): > 100 µM | TGI (DU-145 prostate): > 100 µM | TGI (EKVX NSCLC): > 100 µM | TGI (HCC-2998 colon): 87.2 µM | TGI (HCT-116 colon): > 100 µM | TGI (HCT-15 colon): > 100 µM | TGI (HOP-62 NSCLC): 64.3 µM | TGI (HOP-92 NSCLC): > 100 µM | TGI (HT29 colon): > 100 µM | TGI (IGROV1 ovarian): 31.4 µM | TGI (K-562 leukemia): > 100 µM | TGI (LOX IMVI melanoma): 57 µM | TGI (M14 melanoma): > 100 µM | TGI (MALME-3M melanoma): 31.4 µM | TGI (MCF7 breast): > 100 µM | TGI (MDA-MB-231 breast): 18 µM | TGI (MDA-MB-435): > 100 µM | TGI (MDA-N): 61.1 µM | TGI (MOLT-4 leukemia): > 100 µM | TGI (NCI-H226 lung): > 100 µM | TGI (NCI-H23 lung): 52.3 µM | TGI (NCI-H460 lung): > 100 µM | TGI (NCI-H522 lung): 36.5 µM | TGI (NCI/ADR-RES ovarian): > 100 µM | TGI (OVCAR-3 ovarian): > 100 µM | TGI (OVCAR-4 ovarian): > 100 µM | TGI (OVCAR-5 ovarian): > 100 µM | TGI (OVCAR-8 ovarian): > 100 µM | TGI (PC-3 prostate): > 100 µM | TGI (RPMI-8226 leukemia): 86.5 µM | TGI (RXF 393 renal): > 100 µM | TGI (SF-268 CNS): > 100 µM | TGI (SF-295 CNS): > 100 µM | TGI (SF-539 CNS): > 100 µM | TGI (SK-MEL-2 melanoma): 37.6 µM | TGI (SK-MEL-28 melanoma): > 100 µM | TGI (SK-MEL-5 melanoma): 45.5 µM | TGI (SK-OV-3 ovarian): > 100 µM | TGI (SN12C renal): > 100 µM | TGI (SNB-19 CNS): > 100 µM | TGI (SR leukemia): 70.7 µM | TGI (SW-620 colon): > 100 µM | TGI (T-47D breast): 85.9 µM | TGI (TK-10 renal): > 100 µM | TGI (U251 CNS): > 100 µM | TGI (UACC-257 melanoma): 56.1 µM | TGI (UACC-62 melanoma): 32.8 µM | TGI (UO-31 renal): 44.7 µM

CCOC(=O)/C(=C\NCc1ccc2c(c1)OCO2)c1nc2ccccc2[nH]1
TGI (786-0 renal): > 100 µM | TGI (A498 renal): > 100 µM | TGI (A549 NSCLC): > 100 µM | TGI (ACHN renal): > 100 µM | TGI (BT-549 breast): > 100 µM | TGI (CAKI-1 renal): > 100 µM | TGI (CCRF-CEM leukemia): > 100 µM | TGI (COLO 205 colon): > 100 µM | TGI (DU-145 prostate): > 100 µM | TGI (EKVX NSCLC): > 100 µM | TGI (HCC-2998 colon): > 100 µM | TGI (HCT-116 colon): > 100 µM | TGI (HCT-15 colon): > 100 µM | TGI (HL-60(TB) leukemia): > 100 µM | TGI (HOP-62 NSCLC): > 100 µM | TGI (HOP-92 NSCLC): > 100 µM | TGI (HS 578T breast): > 100 µM | TGI (HT29 colon): > 100 µM | TGI (IGROV1 ovarian): > 100 µM | TGI (K-562 leukemia): > 100 µM | TGI (KM12 colon): > 100 µM | TGI (LOX IMVI melanoma): > 100 µM | TGI (M14 melanoma): > 100 µM | TGI (MALME-3M melanoma): > 100 µM | TGI (MCF7 breast): > 100 µM | TGI (MDA-MB-435): > 100 µM | TGI (MDA-N): > 100 µM | TGI (MOLT-4 leukemia): > 100 µM | TGI (NCI-H226 lung): > 100 µM | TGI (NCI-H23 lung): > 100 µM | TGI (NCI-H460 lung): > 100 µM | TGI (NCI-H522 lung): > 100 µM | TGI (NCI/ADR-RES ovarian): > 100 µM | TGI (OVCAR-3 ovarian): > 100 µM | TGI (OVCAR-4 ovarian): > 100 µM | TGI (OVCAR-5 ovarian): > 100 µM | TGI (OVCAR-8 ovarian): > 100 µM | TGI (PC-3 prostate): > 100 µM | TGI (RPMI-8226 leukemia): > 100 µM | TGI (RXF 393 renal): > 100 µM | TGI (SF-268 CNS): > 100 µM | TGI (SF-295 CNS): > 100 µM | TGI (SF-539 CNS): > 100 µM | TGI (SK-MEL-2 melanoma): > 100 µM | TGI (SK-MEL-28 melanoma): > 100 µM | TGI (SK-MEL-5 melanoma): > 100 µM | TGI (SK-OV-3 ovarian): > 100 µM | TGI (SN12C renal): > 100 µM | TGI (SNB-19 CNS): > 100 µM | TGI (SNB-75 CNS): > 100 µM | TGI (SR leukemia): > 100 µM | TGI (SW-620 colon): > 100 µM | TGI (T-47D breast): > 100 µM | TGI (TK-10 renal): 60 µM | TGI (U251 CNS): > 100 µM | TGI (UACC-257 melanoma): > 100 µM | TGI (UACC-62 melanoma): > 100 µM | TGI (UO-31 renal): > 100 µM
